{"source": "patent US4560677A", "about": "“Synergistic avermectin combination for treating plant pests” (Merck & Co., Inc., priority 1984, dated 1985)", "key": {"2-spotted spider mites [1]": {"tested_on": "2-spotted spider mites", "test": "Residual activity on bean leaves against 2-spotted spider mites (Table X)", "type": "in vivo", "details": "Tetranychus urticae", "protocol": "(§1) A solution of Triton X-155 in acetone (1000 ppm) was used to dissolve the material under test and the resultant solution was diluted with water to obtain a mixture of 10% acetone and 100 ppm of Triton X-155 in water. Further dilution of this stock solution as required in a test was done by using Triton X-155 at 100 ppm in water so that a constant ratio of the surfactant was maintained at all levels. Where emulsifiable oil was used in the treatments, the solutions were prepared in such a way that the final solutions contained 0.06% v/v of the oil.\n(§2) Leaves of Sieva bean plants grown from seeds planted 14-21 days earlier were used in all the tests. Twospotted spider mites (Tetranychus urticae) were cultured continuously on sieva bean plants growing in an insectary under continuous lighting at 75° F.\nOn Day 0, eight uninfested leaves were treated by immersion in the treatment solution. On Day 7, all the leaves were infested with a mixed population of mites. On Day 13, mortality was assessed on four of the leaves and on Day 19 on the remaining four leaves."}, "citrus rust mites": {"tested_on": "citrus rust mites", "test": "Field experiment, citrus rust mite on pink grapefruit in Florida (Table XI)", "type": "in vivo, Phyllocoptruta oleivora", "protocol": "Citrus (pink grapefruit) trees (which were 5-7 years old) infested with citrus rust mites (Phyllocoptrura oleivora) were sprayed using a hydraulic handgun at 250 psi. Each tree was sprayed until runoff.\nEach treatment consisted of three replicates. Thirty-three leaves from each tree were evaluated for percent leaf area not infested by mites. These evaluations were done before the application of treatments and 7 and 14 days after the application of treatments."}, "2-spotted spider mites [2]": {"tested_on": "2-spotted spider mites", "test": "Contact activity on bean leaves against 2-spotted spider mites (Table X)", "type": "in vivo, Tetranychus urticae", "details": "for mortality at 0.015 ppm / mortality at 0.04 ppm / mortality at 0.06 ppm / mortality at 0.25 ppm: Tetranychus urticae", "protocol": "as §1, §2\nOn day 0, eight leaves which had been infested with mites 24 hours earlier were dipped in the treatment solution. On Day 5, mortality was assessed on four of the leaves and on Day 12 on the remaining four leaves."}, "[3]": {"details": "144 h, read-out: mortality, adults"}, "[4]": {"details": "144 h, read-out: mortality, nymphs"}, "[5]": {"details": "288 h, read-out: mortality, adults"}, "[6]": {"details": "288 h, read-out: mortality, larvae"}, "[7]": {"details": "288 h, read-out: mortality, nymphs"}, "[8]": {"details": "120 h, read-out: mortality, adults"}}, "note": "Read-outs that look alike come from different tables or passages of the source.", "data": [{"smiles": "CC1=C[C@H]2C(=O)O[C@H]3C[C@@H](C/C=C(\\C)C[C@@H](C)/C=C/C=C4\\CO[C@H]([C@@H]1O)[C@@]42O)O[C@@]1(CC[C@H](C)[C@@H](C(C)C)O1)C3", "note": "[Milbemycin B-41D, 13-deoxy-22,23-dihydro avermectin B1b aglycone]", "values": [{"measurement": "mortality at 0.25 ppm", "setting": "2-spotted spider mites [1]; [3]", "result": 0, "unit": "%"}, {"measurement": "mortality at 1 ppm", "setting": "2-spotted spider mites [1]; [3]", "result": 0, "unit": "%"}, {"measurement": "mortality at 4 ppm", "setting": "2-spotted spider mites [1]; [3]", "result": 6, "unit": "%"}, {"measurement": "mortality at 16 ppm", "setting": "2-spotted spider mites [1]; [3]", "result": 50, "unit": "%"}, {"measurement": "mortality at 0.25 ppm", "setting": "2-spotted spider mites [1]; [4]", "result": 0, "unit": "%"}, {"measurement": "mortality at 1 ppm", "setting": "2-spotted spider mites [1]; [4]", "result": 0, "unit": "%"}, {"measurement": "mortality at 4 ppm", "setting": "2-spotted spider mites [1]; [4]", "result": 0, "unit": "%"}, {"measurement": "mortality at 16 ppm", "setting": "2-spotted spider mites [1]; [4]", "result": 57, "unit": "%"}, {"measurement": "mortality at 0.25 ppm", "setting": "2-spotted spider mites [1]; [5]", "result": 0, "unit": "%"}, {"measurement": "mortality at 1 ppm", "setting": "2-spotted spider mites [1]; [5]", "result": 0, "unit": "%"}, {"measurement": "mortality at 4 ppm", "setting": "2-spotted spider mites [1]; [5]", "result": 15, "unit": "%"}, {"measurement": "mortality at 16 ppm", "setting": "2-spotted spider mites [1]; [5]", "result": 88, "unit": "%"}, {"measurement": "mortality at 0.25 ppm", "setting": "2-spotted spider mites [1]; [6]", "result": 0, "unit": "%"}, {"measurement": "mortality at 1 ppm", "setting": "2-spotted spider mites [1]; [6]", "result": 0, "unit": "%"}, {"measurement": "mortality at 4 ppm", "setting": "2-spotted spider mites [1]; [6]", "result": 53, "unit": "%"}, {"measurement": "mortality at 16 ppm", "setting": "2-spotted spider mites [1]; [6]", "result": 100, "unit": "%"}, {"measurement": "mortality at 0.25 ppm", "setting": "2-spotted spider mites [1]; [7]", "result": 0, "unit": "%"}, {"measurement": "mortality at 1 ppm", "setting": "2-spotted spider mites [1]; [7]", "result": 0, "unit": "%"}, {"measurement": "mortality at 4 ppm", "setting": "2-spotted spider mites [1]; [7]", "result": 2, "unit": "%"}, {"measurement": "mortality at 16 ppm", "setting": "2-spotted spider mites [1]; [7]", "result": 78, "unit": "%"}, {"measurement": "Percent control", "setting": "citrus rust mites; 0.04 oz ai/100 gal, 7 days after treatment", "result": 14, "unit": "%"}, {"measurement": "Percent control", "setting": "citrus rust mites; 0.04 oz ai/100 gal, 14 days after treatment", "result": 13, "unit": "%"}, {"measurement": "Percent control", "setting": "citrus rust mites; 0.2 oz ai/100 gal, 7 days after treatment", "result": 16, "unit": "%"}, {"measurement": "Percent control", "setting": "citrus rust mites; 0.2 oz ai/100 gal, 14 days after treatment", "result": 18, "unit": "%"}, {"measurement": "mortality at 0.015 ppm", "setting": "2-spotted spider mites [2]; [8]", "result": 66, "unit": "%"}, {"measurement": "mortality at 0.04 ppm", "setting": "2-spotted spider mites [2]; [8]", "result": 79, "unit": "%"}, {"measurement": "mortality at 0.06 ppm", "setting": "2-spotted spider mites [2]; [8]", "result": 92, "unit": "%"}, {"measurement": "mortality at 0.25 ppm", "setting": "2-spotted spider mites [2]; [8]", "result": 100, "unit": "%"}, {"measurement": "mortality at 0.015 ppm", "setting": "2-spotted spider mites [2]; [5]", "result": 0, "unit": "%"}, {"measurement": "mortality at 0.04 ppm", "setting": "2-spotted spider mites [2]; [5]", "result": 0, "unit": "%"}, {"measurement": "mortality at 0.06 ppm", "setting": "2-spotted spider mites [2]; [5]", "result": 38, "unit": "%"}, {"measurement": "mortality at 0.25 ppm", "setting": "2-spotted spider mites [2]; [5]", "result": 43, "unit": "%"}, {"measurement": "mortality at 0.015 ppm", "setting": "2-spotted spider mites [2]; [6]", "result": 0, "unit": "%"}, {"measurement": "mortality at 0.04 ppm", "setting": "2-spotted spider mites [2]; [6]", "result": 0, "unit": "%"}, {"measurement": "mortality at 0.06 ppm", "setting": "2-spotted spider mites [2]; [6]", "result": 91, "unit": "%"}, {"measurement": "mortality at 0.25 ppm", "setting": "2-spotted spider mites [2]; [6]", "result": 100, "unit": "%"}, {"measurement": "mortality at 0.015 ppm", "setting": "2-spotted spider mites [2]; [7]", "result": 0, "unit": "%"}, {"measurement": "mortality at 0.04 ppm", "setting": "2-spotted spider mites [2]; [7]", "result": 0, "unit": "%"}, {"measurement": "mortality at 0.06 ppm", "setting": "2-spotted spider mites [2]; [7]", "result": 56, "unit": "%"}, {"measurement": "mortality at 0.25 ppm", "setting": "2-spotted spider mites [2]; [7]", "result": 67, "unit": "%"}, {"measurement": "potency in short term contact studies", "setting": "2-spotted spider mites [2]; avermectin B1a/B1b versus milbemycin B-41D", "result": "comparable potency"}]}]}
